Results on two compounds are retold here after paper PMC4551907, “Identification of human telomerase assembly inhibitors enabled by a novel method to produce hTERT” (Nucleic Acids Research, 2015).

In test [1] the target is T1, hTERT (Homo sapiens, UniProt O14746). The test is described as follows: RT-TRAP with recombinant telomerase ([…]). It is filed as biochemical. More on the design: gene TERT.
The target in test [2] is T1, hTERT. Nature of the test: RT-TRAP and direct telomerase assay with reconstituted purified hTERT + hTR; preincubation with hTERT vs hTR; dilution (reversibility) test. It is filed as biochemical. More on the design: gene TERT; MBP-hTERT, purified from P. pastoris.

T1 sequence (O14746 whole entry): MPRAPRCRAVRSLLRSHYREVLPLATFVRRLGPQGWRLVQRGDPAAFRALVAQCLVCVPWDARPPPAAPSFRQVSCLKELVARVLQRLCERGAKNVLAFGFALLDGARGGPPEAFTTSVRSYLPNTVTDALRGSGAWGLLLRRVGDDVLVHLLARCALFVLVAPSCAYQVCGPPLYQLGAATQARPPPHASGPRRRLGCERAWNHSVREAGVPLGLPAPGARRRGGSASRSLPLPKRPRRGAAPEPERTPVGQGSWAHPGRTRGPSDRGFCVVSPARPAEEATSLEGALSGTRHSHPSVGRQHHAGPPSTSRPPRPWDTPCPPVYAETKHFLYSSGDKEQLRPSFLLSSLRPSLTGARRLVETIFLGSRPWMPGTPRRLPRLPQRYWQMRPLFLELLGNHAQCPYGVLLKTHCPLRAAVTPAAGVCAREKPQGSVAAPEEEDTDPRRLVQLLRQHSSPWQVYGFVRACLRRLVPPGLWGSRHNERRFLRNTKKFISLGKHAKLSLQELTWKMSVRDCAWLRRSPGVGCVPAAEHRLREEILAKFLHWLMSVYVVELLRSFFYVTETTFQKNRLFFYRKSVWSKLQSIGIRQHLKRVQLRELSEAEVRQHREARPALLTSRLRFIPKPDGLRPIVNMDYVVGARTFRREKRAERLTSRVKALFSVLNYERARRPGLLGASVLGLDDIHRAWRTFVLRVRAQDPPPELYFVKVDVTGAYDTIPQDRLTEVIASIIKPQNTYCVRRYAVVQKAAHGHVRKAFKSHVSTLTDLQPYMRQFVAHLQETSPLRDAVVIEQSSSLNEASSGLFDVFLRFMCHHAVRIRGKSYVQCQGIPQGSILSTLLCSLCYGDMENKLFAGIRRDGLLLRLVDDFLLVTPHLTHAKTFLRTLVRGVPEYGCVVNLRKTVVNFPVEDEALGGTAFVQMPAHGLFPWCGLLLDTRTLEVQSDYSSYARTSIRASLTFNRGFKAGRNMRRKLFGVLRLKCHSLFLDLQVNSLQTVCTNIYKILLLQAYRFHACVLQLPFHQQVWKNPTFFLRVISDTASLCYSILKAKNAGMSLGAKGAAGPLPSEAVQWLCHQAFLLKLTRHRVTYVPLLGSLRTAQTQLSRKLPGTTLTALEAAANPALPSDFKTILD

As usually defined, the IC50 is the midpoint of a concentration-inhibition curve. For the compound `C/C(=C\C(=O)Nc1ccccc1C(=O)O)c1ccc2ccccc2c1` [BIBR1532], the IC50 on hTERT [1] is about 0.08 µM.

On to `NC1CC(N)C(O[C@H]2O[C@H](CNC(=O)[C@@H](N)CCCCNCc3ccc4nc5ccc6nc7ccccc7cc6c5cc4c3)[C@@H](O)C[C@H]2N)C(O)C1O[C@H]1O[C@H](CO)[C@@H](O)[C@H](N)[C@H]1O` (some centres unmarked) [TAI1], for which the IC50 at hTERT [2] amounted to 0.5 ± 0.2 µM.
